Several values for one entry are separate records, joined by “and”; a condition that tells them apart may be missing. Identical values can stand only once. One block for each compound: values may come before it.
Experiments:
[1] = molecular target: T1, human JAK1 (a.a. 837-1142) (Homo sapiens, UniProt P23458); assay: In vitro JAK Kinase Assay (HTRF), JAK1; type: biochemical; details: 1 mM ATP
T1 construct: human JAK1 (a.a. 837-1142); His tag (N); made in house; host or cells: insect cells (baculovirus)
T1 sequence (P23458 849-1154): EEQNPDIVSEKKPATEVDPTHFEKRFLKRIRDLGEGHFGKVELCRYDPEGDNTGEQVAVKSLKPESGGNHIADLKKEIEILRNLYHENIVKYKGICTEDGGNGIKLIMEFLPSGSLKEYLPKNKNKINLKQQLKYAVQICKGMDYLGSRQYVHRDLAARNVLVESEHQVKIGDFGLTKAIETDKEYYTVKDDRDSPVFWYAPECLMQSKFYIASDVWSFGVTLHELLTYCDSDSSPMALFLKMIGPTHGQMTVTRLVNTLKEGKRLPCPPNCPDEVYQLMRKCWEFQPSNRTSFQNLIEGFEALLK
Description: (§1) The catalytic activity of JAK1 and JAK2 was assayed by measuring the phosphorylation of a biotinylated peptide. The phosphorylated peptide was detected by homogenous time resolved fluorescence (HTRF). […] Reactions were carried out at room temperature for 1 hr and then stopped with 20 μL 45 mM EDTA, 300 nM SA-APC, 6 nM Eu-Py20 in assay buffer (Perkin Elmer, Boston, Mass.). Binding to the Europium labeled antibody took place for 40 minutes and HTRF signal was measured on a Fusion plate reader (Perkin Elmer, Boston, Mass.).

[2] = molecular target: T2, human JAK2 (a.a. 828-1132) (Homo sapiens, UniProt O60674); assay: In vitro JAK Kinase Assay (HTRF), JAK2 (for JAK2/JAK1 ratio); type: biochemical; details: ratio of IC50s, 1 mM ATP
T2 construct: JAK2 (a.a. 828-1132); His tag (N); made in house; host or cells: insect cells (baculovirus)
T2 sequence (O60674 828-1132): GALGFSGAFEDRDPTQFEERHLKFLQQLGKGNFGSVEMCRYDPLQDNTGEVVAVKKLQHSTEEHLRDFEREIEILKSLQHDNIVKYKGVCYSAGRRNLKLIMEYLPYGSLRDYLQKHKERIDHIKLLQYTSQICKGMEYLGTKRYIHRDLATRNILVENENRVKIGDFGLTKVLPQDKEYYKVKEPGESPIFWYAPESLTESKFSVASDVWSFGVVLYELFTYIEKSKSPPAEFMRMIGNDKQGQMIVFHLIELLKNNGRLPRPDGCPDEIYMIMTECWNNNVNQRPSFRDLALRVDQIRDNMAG
Description: as §1

[3] = tested on: Subjects with metastatic pancreatic adenocarcinoma that is recurrent or treatment refractory; assay: Randomized, double-blind study of capecitabine + ruxolitinib phosphate vs capecitabine + placebo, survival by baseline CRP / mGPS; details: for Hazard ratio (Rux/Pbo): Cox regression with formal interaction testing; for Active vs Control Hazard Ratio: ruxolitinib vs placebo; for Number of Subjects with Disease Progression, Observed: progression-free survival (death or progressive disease by RECIST 1.1)
Description: Baseline C-reactive protein (CRP) levels were measured for each patient prior to treatment in Arm 1 and Arm 2. Serum CRP concentrations were measured by RMB (RBM multiplexed Luminex®) commercial assay (Myriad RBM). […] The baseline CRP level was calculated on a per patient basis. The patients comprised two groups. Group 1 included all patients who were randomized and took Study Drug. […] For Group 1, the CRP level was the last tested CRP level taken before first dose of Study Drug. For Group 2, the last available value of CRP was taken, if available, for example from screening procedures. With baseline CRP levels for all patients, the median was calculated using normal statistical methods known to one skilled in the art.

[4] = Cox regression analysis of overall survival using baseline predictors, CRP > 13 mg/L, ruxolitinib arm
[5] = overall survival, C-Reactive Protein > 13 (μg/mL), Intent-to-Treat, capecitabine + ruxolitinib arm, N = 31
[6] = overall survival, C-Reactive Protein > 13 (μg/mL), ruxolitinib arm, N = 31
[7] = overall survival, C-Reactive Protein ≦ 13 (μg/mL), Intent-to-Treat, capecitabine + ruxolitinib arm, N = 28
[8] = overall survival, C-Reactive Protein ≦ 13 (μg/mL), ruxolitinib arm, N = 28
[9] = patients with CRP<13 mg/L, ruxolitinib group
[10] = patients with CRP>13 mg/L, ruxolitinib group
[11] = progression-free survival, Table 3, C-Reactive Protein ≦ 13 (μg/mL), ruxolitinib arm, N = 28
[12] = progression-free survival, Table 4, C-Reactive Protein ≦ 13 (μg/mL), ruxolitinib arm, N = 31

IC50 [1]: < 10 nM | JAK2/JAK1 [2]: >10
Compound: N#CCC(C1CCN(c2cccc(Cl)n2)C1)n1cc(-c2ncnc3[nH]ccc23)cn1 (single isomer, unassigned) [Compound 3, 3-[1-(6-chloropyridin-2-yl)pyrrolidin-3-yl]-3-[4-(7H-pyrrolo[2,3-d]pyrimidin-4-yl)-1H-pyrazol-1-yl]propanenitrile]

IC50 [1]: < 100 nM | JAK2/JAK1 [2]: >10
Compound: C[C@@H](O)c1nc2cnc3ccsc3c2n1[C@H]1CC[C@H](CC#N)OC1 [Compound 1, ((2R,5S)-5-{2-[(1R)-1-hydroxyethyl]-1H-imidazo[4,5-d]thieno[3,2-b]pyridin-1-yl}tetrahydro-2H-pyran-2-yl)acetonitrile]

IC50 [1]: < 10 nM | JAK2/JAK1 [2]: >10
Compound: N#CCC(C1CCN(c2nc3cccnc3o2)C1)n1cc(-c2ncnc3[nH]ccc23)cn1 (stereo not shown) [Compound 4, 3-(1-[1,3]oxazolo[5,4-b]pyridin-2-ylpyrrolidin-3-yl)-3-[4-(7H-pyrrolo[2,3-d]pyrimidin-4-yl)-1H-pyrazol-1-yl]propanenitrile]

IC50 [1]: < 10 nM | JAK2/JAK1 [2]: >10
Compound: N#CCC(CN1CCN(C(=O)c2ccc(C#N)cc2F)CC1)n1cc(-c2ncnc3[nH]ccc23)cn1 (stereo not shown) [Compound 5, 4-[(4-{3-cyano-2-[4-(7H-pyrrolo[2,3-d]pyrimidin-4-yl)-1H-pyrazol-1-yl]propyl}piperazin-1-yl)carbonyl]-3-fluorobenzonitrile]

IC50 [1]: < 10 nM | JAK2/JAK1 [2]: >10
Compound: N#CCC(CN1CCN(C(=O)c2ccc(C#N)cc2F)CC1)n1ccc(-c2ncnc3[nH]ccc23)c1 (stereo not drawn) [Compound 6, 4-[(4-{3-cyano-2-[3-(7H-pyrrolo[2,3-d]pyrimidin-4-yl)-1H-pyrrol-1-yl]propyl}piperazin-l-yl)carbonyl]-3-fluorobenzonitrile]

IC50 [1]: < 10 nM | JAK2/JAK1 [2]: >10
Compound: N#CCC1(n2cc(-c3ncnc4[nH]ccc34)cn2)CN(C2CCN(C(=O)c3ccnc(C(F)(F)F)c3F)CC2)C1 [Compound 7, {l-{l-[3-Fluoro-2-(trifluoromethyl)isonicotinoyl]piperidin-4-yl}-3-[4-(7H-pyrrolo[2,3-d]pyrimidin-4-yl)-1H-pyrazol-1-yl]azetidin-3-yl}acetonitrile]

IC50 [1]: < 10 nM | JAK2/JAK1 [2]: >10
Compound: N#CCC1(n2cc(-c3ncnc4[nH]ccc34)cn2)CN(C2CCN(C(=O)Nc3ccc(F)cc3C(F)(F)F)CC2)C1 [Compound 8, 4-{3-(Cyanomethyl)-3-[4-(7H-pyrrolo[2,3-d]pyrimidin-4-yl)-1H-pyrazol-1-yl]azetidin-1-yl}-N-[4-fluoro-2-(trifluoromethyl)phenyl]piperidine-1-carboxamide]

IC50 [1]: < 10 nM | JAK2/JAK1 [2]: >10
Compound: N#CCC1(n2cc(-c3ncnc4[nH]ccc34)cn2)CN(C2CCN(C(=O)c3ccnc(C(F)(F)F)n3)CC2)C1 [Compound 9, [3-[4-(7H-pyrrolo[2,3-d]pyrimidin-4-yl)-1H-pyrazol-1-yl]-1-(l-{[2-(trifluoromethyl)pyrimidin-4-yl]carbonyl}piperidin-4-yl)azetidin-3-yl]acetonitrile]

IC50 [1]: < 10 nM | JAK2/JAK1 [2]: >10
Compound: N#CC[C@]1(n2cc(-c3ncnc4[nH]ccc34)cn2)C[C@H](N2CCN(C(=O)c3ccnc(C(F)(F)F)n3)CC2)C1 [Compound 10, [trans-1-[4-(7H-pyrrolo[2,3-d]pyrimidin-4-yl)-1H-pyrazol-1-yl]-3-(4-{[2-(trifluoromethyl)pyrimidin-4-yl]carbonyl}piperazin-1-yl)cyclobutyl]acetonitrile]

IC50 [1]: < 10 nM | JAK2/JAK1 [2]: >10
Compound: N#CC[C@]1(n2cc(-c3ncnc4[nH]ccc34)cn2)C[C@H](N2CCC(Oc3cc(CN4CC(O)C4)cc(C(F)(F)F)n3)CC2)C1 [Compound 11, {trans-3-(4-{[4-[(3-hydroxyazetidin-1-yl)methyl]-6-(trifluoromethyl)pyridin-2-yl]oxy}piperidin-1-yl)-1-[4-(7H-pyrrolo[2,3-d]pyrimidin-4-yl)-1H-pyrazol-1-yl]cyclobutyl}acetonitrile]

IC50 [1]: < 10 nM | JAK2/JAK1 [2]: >10
Compound: N#CC[C@]1(n2cc(-c3ncnc4[nH]ccc34)cn2)C[C@H](N2CCC(Oc3cc(CN4CCC[C@H]4CO)cc(C(F)(F)F)n3)CC2)C1 [Compound 12, {trans-3-(4-{[4-{[(2S)-2-(hydroxymethyl)pyrrolidin-1-yl]methyl}-6-(trifluoromethyl)pyridin-2-yl]oxy}piperidin-1-yl)-1-[4-(7H-pyrrolo[2,3-d]pyrimidin-4-yl)-1H-pyrazol-1-yl]cyclobutyl}acetonitrile]

IC50 [1]: < 10 nM | JAK2/JAK1 [2]: >10
Compound: N#CC[C@]1(n2cc(-c3ncnc4[nH]ccc34)cn2)C[C@H](N2CCC(Oc3cc(CN4CCC[C@@H]4CO)cc(C(F)(F)F)n3)CC2)C1 [Compound 13, {trans-3-(4-{[4-{[(2R)-2-(hydroxymethyl)pyrrolidin-1-yl]methyl}-6-(trifluoromethyl)pyridin-2-yl]oxy}piperidin-1-yl)-1-[4-(7H-pyrrolo[2,3-d]pyrimidin-4-yl)-1H-pyrazol-1-yl]cyclobutyl}acetonitrile]

IC50 [1]: < 10 nM | JAK2/JAK1 [2]: >10
Compound: C[C@H](NC(=O)c1cc(F)c(N2CC(CC#N)(n3cc(-c4ncnc5[nH]ccc45)cn3)C2)cc1F)C(F)(F)F [Compound 16, 4-{3-(cyanomethyl)-3-[4-(7H-pyrrolo[2,3-d]pyrimidin-4-yl)-1H-pyrazol-1-yl]azetidin-1-yl}-2,5-difluoro-N-[(1S)-2,2,2-trifluoro-1-methylethyl]benzamide]

Compound: N#CC[C@H](C1CCCC1)n1cc(-c2ncnc3[nH]ccc23)cn1 [Ruxolitinib, ruxolitinib]
(%) subjects Censored [3, 4]: (20.0) % | (%) subjects who died, Observed [3, 4]: (80.0) % | Number subjects Censored [3, 4]: 6 | Number subjects who died, Observed [3, 4]: 24 | Hazard ratio (Rux/Pbo) ([3]; subgroup CRP > 13 mg/L): 0.473 | Hazard ratio (Rux/Pbo) ([3]; subgroup Karnofsky: 60-80): 0.799 | Hazard ratio (Rux/Pbo) ([3]; subgroup Low albumin): 0.618 | HR for progression-free survival (PFS) ([3]; intent-to-treat analysis including all randomized patients): 0.75 | (%) of Subjects Censored [3, 5]: ( 19.4%) | (%) of Subjects Died, Observed [3, 5]: ( 80.6%) | Number of Subjects Censored [3, 5]: 6 | Number of Subjects Died, Observed [3, 5]: 25 | Median Time to Event [3, 6]: 83.0 days | Month 3 Survival Rate(%) [3, 6]: 48.4% | Month 6 Survival Rate(%) [3, 6]: 41.5% | Month 9 Survival Rate(%) [3, 6]: 16.5% | Month 12 Survival Rate(%) [3, 6]: 11.0% | Active vs Control Hazard Ratio ([3]; overall survival, C-Reactive Protein > 13 (μg/mL), Cox regression): 0.473 | (%) of Subjects Censored [3, 7]: ( 28.6%) | (%) of Subjects Died, Observed [3, 7]: ( 71.4%) | Number of Subjects Censored [3, 7]: 8 | Number of Subjects Died, Observed [3, 7]: 20 | Median Time to Event [3, 8]: 185.5 days | Month 3 Survival Rate(%) [3, 8]: 82.1% | Month 6 Survival Rate(%) [3, 8]: 50.0% | Month 9 Survival Rate(%) [3, 8]: 37.3% | Month 12 Survival Rate(%) [3, 8]: 19.9% | Active vs Control Hazard Ratio ([3]; overall survival, C-Reactive Protein ≦ 13 (μg/mL), Cox regression): 0.887 | Hazard Ratio, Treatment (ruxolitinib vs placebo) ([3]; overall survival, CRP > 13 mg/L, Cox regression accounting for baseline characteristics): 0.50 and 0.501 | hazard ratio for PFS ([3]; patients with CRP<13 mg/L): 0.82 | probability of PFS at 3 months [3, 9]: 39% | probability of PFS at 6 months [3, 9]: 25% | probability of PFS at 9 months [3, 9]: 10% | HR for PFS ([3]; patients with CRP>13 mg/L): 0.62 | proportion showing disease stabilization (RECIST v1.1) ([3]; patients with CRP>13 mg/L receiving ruxolitinib with postbaseline assessments (N=19)): 68.4% | probability of progression-free survival at 3 months [3, 10]: 35% | probability of progression-free survival at 6 months [3, 10]: 21% | probability of progression-free survival at 9 months [3, 10]: 11% | HR for OS ([3]; patients with mGPS of 0 (N=51)): 0.91 | HR for OS ([3]; patients with mGPS of 1 (N=34)): 0.71 | HR for OS ([3]; patients with mGPS of 2 (N=36)): 0.49 | HR (survival) ([3]; post-hoc analysis, patients with CRP≦10 mg/L (N=51)): 0.91 | HR in favor of ruxolitinib (survival) ([3]; post-hoc analysis, patients with a CRP>10 mg/L (N=70)): 0.60 | Number of Subjects with Disease Progression, Observed ([3]; Table 3, C-Reactive Protein ≦ 13 (μg/mL), ruxolitinib arm, N = 28): 26 | Number of Subjects with Disease Progression, Observed ([3]; Table 4, C-Reactive Protein ≦ 13 (μg/mL), ruxolitinib arm, N = 31): 26 | (%) of Subjects Censored [3, 11]: ( 7.1%) | (%) of Subjects with Disease Progression, Observed [3, 11]: ( 92.9%) | Median Time to Event [3, 11]: 80.0 days | Month 3 Survival Rate(%) [3, 11]: 39.3% | Month 6 Survival Rate(%) [3, 11]: 25.0% | Month 9 Survival Rate(%) [3, 11]: 10.0% | Number of Subjects Censored [3, 11]: 2 | Active vs Control Hazard Ratio ([3]; progression-free survival, Table 3, C-Reactive Protein ≦ 13 (μg/mL)): 0.818 | (%) of Subjects Censored [3, 12]: ( 16.1%) | (%) of Subjects with Disease Progression, Observed [3, 12]: ( 83.9%) | Median Time to Event [3, 12]: 48.0 days | Month 3 Survival Rate(%) [3, 12]: 34.5% | Month 6 Survival Rate(%) [3, 12]: 20.7% | Month 9 Survival Rate(%) [3, 12]: 11.0% | Month 12 Survival Rate(%) [3, 12]: 0.0% | Number of Subjects Censored [3, 12]: 5 | Active vs Control Hazard Ratio ([3]; progression-free survival, Table 4, C-Reactive Protein ≦ 13 (μg/mL)): 0.619

Source: patent publication US20150065447A1, “SURVIVAL BENEFIT IN PATIENTS WITH SOLID TUMORS WITH ELEVATED C-REACTIVE PROTEIN LEVELS” (Incyte Corporation, priority 2013, published 2015)
